Experimental data as given in patent publication US20250101430A1, “METHODS OF CANCER TREATMENT BY INHIBITION OF VASCULOGENESIS AND GLI1” (priority 2021, published 2025).
Entries after “also recorded” stand apart in the source; their conditions may differ.

Tests used:
HUVEC cells = conditions: cited from earlier work
H1 hESCs = assay: Spontaneous differentiation of WT H1 hESC in embryoid bodies in the presence of GANT-61, real time PCR; assay type: cell-based, human
Description: WT H1 hESC single cells were plated onto non-attachment plates and maintained in ESC media without FGF-β in the presence of FBS. Experimental group was cultured in the presence of GANT-61 (Tocris Biosciences, Cat. No. 3191) at concentration of 5 μM, while the control group was cultured in the presence of 5 μM DMSO. Media containing GANT-61 was replaced every other day. Embryoid bodies were collected at days 10 and 20. Markers for the three embryologic lineages were analyzed by real time PCR.
(§1) High-Capacity RNA-to-cDNA kit (Applied Biosystems) was used to reverse transcribe the isolated RNA. Each reaction tube included up to 2 μg of RNA. The reverse transcription reaction was performed according to manufacturer instructions via the MBS Satellite (0.2 G) Thermal Cycler (ThermoFisher Scientific). The qPCR reaction mix was prepared by adding 12 ng of cDNA from each sample to the PowerUp SYBR Green Master Mix (2×) (Applied Biosystems). qPCR was performed (Standard Cycling Mode, primer Tm<60° C.) via the 7500 Fast Real-Time PCR system [Applied Biosystems]. The 7500 v2.3 software was used for data collection and gene expression comparisons (2^−ΔΔCT method).

Rh18 cells = assay: rt-PCR of GLI1 target gene Bcl-2 in GANT-61 treated Rh18 cells; assay type: cell-based
Description: as §1
(§2) First, to validate the effect of GANT-61 inhibition on GLI1 target genes, rt-PCR on GANT-61 treated Rh18 and Rh41 cells was performed. These cell lines express GLI1.

[1] = tested on: GLI1 and GLI2 transcription factors; conditions: cited from earlier work
GLI1 = target: T1, GLI1 (Homo sapiens, UniProt P08151); conditions: between zinc fingers 2 and 3 at sites E119 and E167; cited from earlier work
T1 sequence (P08151 1-1106): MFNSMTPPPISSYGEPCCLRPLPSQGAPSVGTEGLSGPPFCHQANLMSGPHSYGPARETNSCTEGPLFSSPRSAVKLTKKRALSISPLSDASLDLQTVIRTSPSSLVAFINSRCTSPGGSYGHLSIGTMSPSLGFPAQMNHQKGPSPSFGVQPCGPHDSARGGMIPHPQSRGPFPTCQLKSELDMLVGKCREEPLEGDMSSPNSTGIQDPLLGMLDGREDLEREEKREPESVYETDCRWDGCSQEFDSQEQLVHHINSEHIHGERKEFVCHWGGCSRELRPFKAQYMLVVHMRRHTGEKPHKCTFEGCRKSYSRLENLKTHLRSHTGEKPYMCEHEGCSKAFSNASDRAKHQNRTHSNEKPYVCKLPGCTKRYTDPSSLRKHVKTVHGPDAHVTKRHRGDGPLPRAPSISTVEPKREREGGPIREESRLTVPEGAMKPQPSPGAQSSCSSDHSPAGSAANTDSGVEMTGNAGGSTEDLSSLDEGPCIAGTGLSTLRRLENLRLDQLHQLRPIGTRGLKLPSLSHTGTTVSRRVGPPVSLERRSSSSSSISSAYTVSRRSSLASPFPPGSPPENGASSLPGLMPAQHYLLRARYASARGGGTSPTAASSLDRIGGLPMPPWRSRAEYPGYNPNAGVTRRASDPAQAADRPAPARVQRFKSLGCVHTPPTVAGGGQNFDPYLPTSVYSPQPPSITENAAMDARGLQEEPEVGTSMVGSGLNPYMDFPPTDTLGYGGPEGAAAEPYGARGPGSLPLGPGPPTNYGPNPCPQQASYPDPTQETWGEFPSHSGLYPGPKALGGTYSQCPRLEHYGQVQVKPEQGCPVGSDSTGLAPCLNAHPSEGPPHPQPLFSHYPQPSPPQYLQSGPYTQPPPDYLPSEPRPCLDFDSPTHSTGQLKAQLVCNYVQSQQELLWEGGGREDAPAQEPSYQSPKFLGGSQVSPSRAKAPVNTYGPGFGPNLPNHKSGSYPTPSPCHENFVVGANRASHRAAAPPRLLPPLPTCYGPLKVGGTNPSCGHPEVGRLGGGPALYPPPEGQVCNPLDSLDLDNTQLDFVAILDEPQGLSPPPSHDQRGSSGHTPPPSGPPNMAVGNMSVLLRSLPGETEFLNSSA

Rh41 cells = assay: rt-PCR of GLI1 target gene Bcl-2 in GANT-61 treated Rh41 cells; assay type: cell-based
Description: as §1, §2

[2] = tested on: human colon carcinoma cell lines; conditions: panel of 7 human colon carcinoma cell lines; cited from earlier work
hESCs = assay: Marker expression in hESCs maintained in mTeSR1 media with GANT-61; assay type: cell-based, human; conditions: 5 μM and 20 μM GANT-61, 6 or 12 days
Description: H1 (WA01), a well characterized human embryonic stem cell line,^33 was purchased from WiCell (Madison, WI, www.wicell.org/home/stem-cells/catalog-of-stem-cell-lines/wa01.cmsx). The cells were maintained on Matrigel-coated culture dishes in mTeSR1 medium (STEMCELL Technologies) or StemMACS iPS-Brew XF (Miltenyi Biotec).
as §1
Next, the effect of GANT-61 on GLI1 and SHH pathway members PTCH1 and SMO expression and on pluripotency marker expression in hESCs was evaluated.

cancer cells = conditions: cited from earlier work
DNA = conditions: cited from earlier work
[3] = tested on: lung adenocarcinoma cell lines; conditions: cited from earlier work
[4] = 5 μM GANT-61, day 10 embryoid bodies
[5] = 5 μM GANT-61, during the differentiation process

## c1cc(-c2sc(-c3ccncc3)c(-c3ccncc3)c2-c2ccncc2)ccn1 [GANT-58]
HUVEC cells; HUVEC cells
  oxytocin induced HIF-1alpha expression: abrogate
HUVEC cells
  angiogenic capacity of HUVEC cells: reduction

## CN(C)c1ccccc1CN1CCCN(Cc2ccccc2N(C)C)C1c1ccncc1 [GANT-61]
H1 hESCs
  mesodermal commitment of H1 hESCs in embryoid bodies: inhibited
H1 hESCs; 5 μM GANT-61, day 10
  GLI1 expression: down-regulated
  GLI2 expression: down-regulated
  PTCH1 expression: down-regulated
  Plakoglobin expression: down-regulated
  expression of pluripotency genes: down-regulated
H1 hESCs; [4]
  ectodermal gene expression / differentiation: decreased; also recorded: inhibited
  endodermal gene expression / differentiation: significantly increased; also recorded: promoted
  mesodermal gene expression / differentiation: significantly increased; also recorded: promoted
H1 hESCs; 5 μM GANT-61, day 20
  GLI1 expression: continued to down-regulate
  GLI2 expression: continued to down-regulate
  PTCH1 expression: continued to down-regulate
  endodermal marker expression: significantly decreased; also recorded: significantly reduced
  expression of pluripotency genes: continued to down-regulate
  mesodermal marker expression: significantly decreased; also recorded: significantly reduced
H1 hESCs; [5]
  GLI1 expression: significantly down-regulated
  PTCH1 expression: significantly down-regulated
Rh18 cells
  Bcl-2 expression: significant down-regulation
[1]
  binding of GLI1 and GLI2 transcription factors to DNA: inhibiting the binding
GLI1
  binding to GLI1: binds
Rh41 cells
  Bcl-2 expression: significant down-regulation
[2]
  cell death: extensive cell death
hESCs
  GLI1 expression: no significant differences
  PTCH1 expression: no significant differences
  SMO expression: no significant differences
  pluripotency marker expression: no significant differences
Cancer cells
  apoptosis: increases
  proliferation: reduces
  stem cell markers: reduces
DNA
  binding to DNA: does not bind
[3]
  cancer initiating phenotype: effective inhibiting
